The subject of assay [1] is PARP, Caspase 3, caspase 8 and caspase 9. The assay is described as follows: Western blot of PARP and caspases 3, 8, 9 in CLL cells. It counts as cell-based, Human. On the procedure: Western blotting. Immunoblot assays were performed as described previously.(34) Cell lysates were prepared and quantified by the bicin choninic acid (BCA) method (Pierce, Rockford, Ill.). Lysates with 50 μg of total protein were separated using 10% sodium dodecyl sulfate-polyacrylamide-gel electrophoresis, and transferred to 0.2 μm nitrocellulose membranes (Schleicher & Schuell, Keene, N.H.). The blots were probed with indicated primary antibodies followed by Horseradish peroxidase (HRP)-conjugated goat anti-rabbit IgG or goat anti-mouse IgG (Bio-Rad Laboratories, Richmond, Calif.). Detection was made with chemiluminescent substrate (SuperSignal, Pierce Inc. Rockford, Ill.). The PARP (Ab-2) and Caspase 9 antibodies were purchased from Oncogene/Calbiochem/EMD Biosciences (San Diego, Calif.). The Caspase 3 (AR-14 caspase 3/cpp32 and caspase 8 (AR-18) antibodies were kind gift from Dr. John Reed (Burnham Institute, La Jolla, Calif.).
FTY720 induced apoptosis in CLL cells is not dependent on activation of caspases, the cysteine proteases of CED3/ICE family Several therapeutic agents such as glucocorticoids and chemotherapeutic agents such as fludarabine, chlorambucil and 2-chloro-2-deoxyadenosine induce cellular cytotoxicity in CLL cells through activation of caspases, the cysteine proteases of CED3/ICE family. […]

In a further assay the test system is Jeko cells. The assay is described as follows: Annexin V/PI toxicity in Jeko cells. It counts as cell-based. The conditions noted are these: Homo sapiens, WinNolin sigmoid inhibitory model. As for the experimental part: Primary MCL cells were isolated from PBMC (with informed patient consent under a protocol approved by IRB) as described before. All the MCL patients were identified as outlined by the World Health Organization (WHO) classification. Human mantle cell lymphoma patient cell lines (Mino and Jeko) were obtained from Dr. Raymond Lai. Primary cells or MCL cell lines were incubated in RPMI 1640 media, supplemented with 10%-20% heat-inactivated fetal bovine serum, 2 mM L-glutamine and penicillin (100 U/mL)/streptomycin ([…]) at 37° C. in an atmosphere of 5% CO2. FTY720 was synthesized as previously described. Toxicity was determined by flow cytometry using Annexin-V-FITC and Propidium Iodide (PI) staining. Apoptotic cells were identified as Annexin-V+ and/or PI+ cells. Cells excluding both FITC and PI were considered viable. Western Blotting was performed as described previously using indicated antibodies. The PARP (Ab-2) and Caspase 9 antibodies were purchased from Oncogene/Calbiochem/EMD Biosciences (San Diego, Calif.). Cyclin D1, Akt, Actin, Mcl-1, p-ERK, ERK and Bcl-2 were obtained from Santa Cruz biotech (Santa Cruz, Calif.).
Several therapeutic agents, including fludarabine, chlorambucil, 2-chloro-2-deoxyadenosine and glucocorticoids, induce toxicity in B cell malignancies through activating caspases, the cysteine proteases of CED3/ICE family. […]

The next assay concerns Raji cells. The assay is described as follows: Raji disseminated lymphoma/leukemia SCID mouse xenograft model. It counts as in vivo, SCID mice. On the procedure:
In vivo therapeutic efficacy evaluation in a xenograft model: The in-vivo evaluation of FTY720 was carried out using the disseminated lymphoma bearing SCID mouse xenograft model. This model was generated using human Raji B cell line injected into SCID mice as previously described. Raji cells were cultured in RPMI1640+10% FBS. Confluent cultures with >95% viability were confirmed to express human CD19 by flow cytometry. […] female 6-8 week-old C.B.-17 SCID mice (Taconic Farm, Germantown, N.Y.) were injected with 2×10^6 cells intravenously (i.v) in 200 ul sterile PBS via the tail vein. Seventy two hours post inoculation, the animals were divided into 4 equal treatment groups. […] All the animals were monitored daily for signs of illness and sacrificed immediately if hind limb paralysis, respiratory distress or 30% body weight loss was noted. Body weight was measured once every week. […] The presences of the CD19^+ cells were evaluated in the bone marrow of these mice by flow cytometry. […]

Usually IC50 stands for the concentration that gives 50% inhibition. High values mean lower potency, low ones higher potency. With `CCCCCCCCc1ccc(CCC(N)(CO)CO)cc1.Cl` [FTY720, 2-Amino-2-[2-(4-octylphenyl)ethyl]propane 1,3-diol hydrochloride], the PARP cleavage result in assay [1] (24 and 48 hours post treatment, CLL cells) is on record as “failed to reveal PARP cleavage”. Moreover, the “caspases 3, 8 and 9 activation” value in assay [1] (FTY720 treated CLL cells) is listed as “remained in precursor forms”. In the assay on Jeko cells, this compound yielded an IC50 of 4.46 µM. The median survival time in the assay with Raji cells (FTY720 5 mg/kg every day for 2 weeks i.p., 95% CI 39-53) is on record as 47 days. In the assay on Raji cells (after a follow-up period of 200 days), the “mice surviving without signs of disease” value was 4 of the 12.
